Data reported in patent US7709002B1, “Mutated ras peptides for generation of CD8+Cytotoxic T lymphocytes” (The United States of America as represented by the …, priority 1996, dated 2010).
Values belong to the substance of their own block, whether it stands above or below them.

Key:
[1] = test system: SW480 colon carcinoma cell line (HLA-A2+, rasVal12+); test: 51Cr-release cytotoxicity of CTL against SW480 colon carcinoma cells; assay type: cell-based, human
Experimental: FIGS. 10A and 10B. Anti-ras Val12-specific CTL from patient 29 lyse SW480 tumor targets in the absence of exogenous peptide. FIG. 10A: Anti-ras Val12-specific CD8^+ CTL from patient 29 were assayed against the SW480 colon carcinoma cell line (HLA-A2^+, rasVal12+) in the absence of exogenous peptide, with or without IFN-γ pretreatment (250 U/ml for 24 hr) of the target cells. CD8^+ CTL reactive with the […] peptide were used as an irrelevant effector cell population. Cytotoxicity was determined by ^51Cr-release, and the results expressed at different effector/target ratios. FIG. 10B: In parallel to 10A, anti-ras or anti-MART-1-specific CTL were assayed against SW480 (±IFN-γ pretreatment) at an effector/target ratio of 10/1 in the absence or presence of exogenous peptide (5 μg/ml). […] Flow cytometric analysis of SW480 cells for expression of HLA-A2: untreated=65.4% with MFI of 29.8; IFN-γ-pretreated=99.5% with MFI of 349.6. Flow cytometric analysis of SW480 cells for expression of ICAM-1: untreated=16.0% with MFI of 30.3; IFN-γ-pretreated=98.6% with MFI of 181.9.
(§1) Cytotoxic response. Cytotoxicity was examined by a conventional ^51Cr-release assay, as described (6). […] After incubation, supernatants were collected using a Supernatant Collection System (Skatron, Sterling, Va.) and radioactivity measured in a γ-counter (Packard Instruments, Downers Grove, Ill.). Cytotoxic activity was defined as percent specific release of ^51Cr and determined by the equation: [(experimentalcpm−spontaneouscpm)/maximumcpm−spontaneouscpm)]×100. Results were expressed as the mean±SEM of triplicate cultures. […]
Studies were also carried out to determine whether such peptide-induced CD8^+ CTL could recognize a processed form of the corresponding mutant ras protein. […] In contrast to the CD4^+ analysis, which measured lymphoproliferation to soluble protein, the CD8^+ CTL analysis reflected lytic ability against SW480 cells harboring the naturally-occurring mutation in the absence of exogenously added peptide. […]

[2] = test system: T2 cell line as target of CD8+ CTL line of RAS patient 32; test: 51Cr-release cytotoxicity of CD8+ CTL line of RAS patient 32 against peptide-pulsed T2 targets; assay type: cell-based, human; conditions: peptide 10 μg/ml, IVS cycle 7 (FIG. 5)
Experimental: FIG. 5. Cytolytic activity by CD8^+ CTL line of RAS patient 32 is peptide-specific. The CD8^+ CTL line of RAS patient 32 (see FIG. 3) was assayed against the T2 cell line as a target, incubated with and without different ras peptides (10 μg/ml), as shown. In parallel, the extent of NK activity was evaluated against K562 cells. Cytotoxicity was determined by ^51Cr-release, and the results expressed at different E/T ratios following IVS cycle 7. Similar results were observed using the second, independently-derived CD8^+ CTL line as described in Table 6.
IVS cycles for evaluation of CD8^+ T cell responses from HLA-A2+Patients. Freshly-thawed PBMC (from ras patients 32 and 33), derived pre-vaccination and post-third vaccination, were enriched in T lymphocytes by passage over nylon wool columns (Robbins Scientific, Sunnyvale, Calif.) and then depleted of CD4^+ T cells by negative selection via panning on anti-CD4 MAb-coated T25 flasks (Applied Immune Sciences, Santa Clara, Calif.). For the first IVS cycle, CD8^+ enriched lymphocytes (5×10^5/well) were cultured in 24-well plates with irradiated, autologous PBMC (5×10^6/well) as APC which had been preincubated for 3 hours with the appropriate mutant ras peptide ([…]) plus human β2-microglobulin (10 μg/ml) (Calbiochem, San Diego, Calif.). […] IL-2 (10 U/ml) was added 3 days later. After an additional 7 days, viable cells (2-5×10^5/well) were re-cultured by weekly stimulation with APC pre-pulsed with peptide/β2-microglobulin, and IL-2 added one day later. After the third or fourth IVS cycle, autologous PBMC were replaced with EBV-transformed, autologous BLCL (5×10^5/well) as APC. […] CTL activity was evaluated from cultures 5 to 6 days after Ag restimulation.
Cytotoxic response. Cytotoxicity was examined by a conventional ^51Cr-release assay, as described (6). Briefly, target cells (i.e. T2, C1R-A2, BLCL, K562) were radiolabeled with 200 μCi of Na2[^51Cr]04 (Amersham) for 60 minutes at 37° C., followed by thorough washing to remove unincorporated isotope. Effectors and targets (1×10^4/well) were incubated in 96-well, U-bottomed plates (Costar) at various effector target (E/T) ratios in the absence and presence of peptide (+/−monoclonal antibody (MAb) directed against CD4, CD8 or HLA-A2 molecules (clone BB7.2 from ATCC)) for up to 6 hours. After incubation, supernatants were collected using a Supernatant Collection System (Skatron, Sterling, Va.) and radioactivity measured in a γ-counter (Packard Instruments, Downers Grove, Ill.). Cytotoxic activity was defined as percent specific release of ^51Cr and determined by the equation: [(experimentalcpm−spontaneouscpm)/maximumcpm−spontaneouscpm)]×100. Results were expressed as the mean±SEM of triplicate cultures. […]

[3] = test system: C1R-A2 targets / autologous EBV-B cells as targets of CD8+ CTL line of patient 29; test: 51Cr-release cytotoxicity of CD8+ CTL line of patient 29 against C1R-A2 or autologous EBV-B targets; assay type: cell-based, human; conditions: patient 29 lymphocytes after IVS cycle 7 (FIG. 9A)
Experimental: FIGS. 9A and 9B. Production of a peptide-specific CD8^+ T cell line from post-vaccinated lymphocytes of patient 29. FIG. 9A: A CD8^+ CTL line was established from post-vaccinated PBMC of patient 29 and assayed for peptide specificity against C1R-A2 targets. Cytotoxicity was determined by ^51Cr-release, and the results expressed at different effector/target ratios following IVS cycle 7. FIG. 9B: Using this CD8^+ CTL line, the requirement for HLA-A2 in peptide presentation (by autologous EBV-B cells as targets) was determined in blocking experiments using MAb (clone BB7.2; ascites=1:30 dilution) directed against that molecule (or using an isotype-matched MAb). […] CD4 and CD8 MAbs were as described for FIGS. 8A and 8b. Control lysis in the absence of peptide or in the presence of ras5-14(Gly12) was <3%.
as §1

[4] = test system: CD4+ T cell line of RAS patient 43; test: Proliferation of patient 43 CD4+ T cell line to ras protein from tumor cell extracts captured on pan-ras MAb RAS 10 and presented by autologous BLCL; assay type: cell-based, human
[5] = test system: CD4+ T cell line of RAS patient 43; test: Lymphoproliferation (3H-thymidine uptake) of PBMC cultures / CD4+ T cell line of RAS patient 43; assay type: cell-based, human; conditions: for Proliferation Response cpm(± SEM) / Proliferation Response SI (stimulation index): 4th IVS
[6] = test system: CD4+ T cell line of patient 29; test: Lymphoproliferation (3H-thymidine uptake) of PBMC cultures / CD4+ T cell line of patient 29; assay type: cell-based, human
Excerpt: In vitro stimulation (IVS) cycles for evaluation of CD4^+ T cell responses. IVS cycles were established to: (i) amplify detection of a low proliferative response, (ii) compare “pre-immune” to “post-immune” lymphocytes over a period to time for assessment of potential peptide-specific reactivity, and (iii) derive peptide-specific CD4^+ T cell lines in culture for detailed phenotypic and functional characterization. […]
Proliferation response. […] Cells were collected with a TOMTEC MACH II 96 harvester (Wallace, Inc., Gaithersburg, Md.) and incorporated radioactivity was measured by liquid scintillation spectroscopy (1205 Betaplate flat bed LS counter; Wallace). MHC class I or II restriction was analyzed in MAb blocking experiments using anti-HLA-A, B, C (clone G46-2.6) or anti-HLA-DR, anti-HLA-DP or anti-HLA-DQ (clones TU36, HI43 or TU169, respectively) (all from Pharmingen). […] Results were expressed as the mean cpm±SEM of triplicate cultures or stimulation index, which was calculated by dividing the cpm of experimental cultures (means counts of triplicate wells) by the cpm of unstimulated control cultures (mean counts of triplicate wells).

[7] = test system: HLA-A2+ peptide-pulsed targets; test: Generation and cytotoxicity of ras4-12(V12)-specific CD8+ CTL line from a normal HLA-A2+ donor; assay type: cell-based, human; conditions: wild-type printed as wild-type ras peptide
human HLA-A2 = target: T1, human HLA-A2 (Homo sapiens, UniProt P04439, D140Y/D185E/D98H/E176V/E277Q/G131W/G231S/I119V/I121R/I166T/I218V/L300P/L318F/N151K/N90K/P208A/P217A/Q86G/Q94H/R138H/R169H/T345S); test: HLA-A2 binding bioassay on T2 cells (flow cytometry); conditions: T2 bioassay
T1 construct: The 174CEM.T2 cell line (“T2”), (transport deletion mutant); endogenous in cells; host or cells: 174CEM.T2 (T2) human cell line

[8] = Post-Immune culture, peptide 3 μg/ml
[9] = Post-Immune culture, peptide 10 μg/ml
[10] = Post-Immune culture, peptide 30 μg/ml
[11] = Pre-Immune culture, peptide 3 μg/ml
[12] = Pre-Immune culture, peptide 10 μg/ml
[13] = Pre-Immune culture, peptide 30 μg/ml
[14] = Pre-Immune culture, peptide 100 μg/ml

Substance: Lys-Leu-Val-Val-Val-Gly-Ala-Val-Gly-Val [ras5-14(Val12)]
Effect of exogenous peptide on anti-rasVal12 CTL-mediated lysis of SW480 ([1]; peptide 5 μg/ml, E/T 10/1 (FIG. 10B), control printed as wild-type ras peptide): enhanced
Lysis of SW480 by anti-MART CTL in presence of exogenous peptide ([1]; with or without IFN-γ (FIG. 10B)): failed to lyse SW480 target cells
Sensitization of T2 targets for lysis (in words) [2]: failed to stimulate lysis
Peptide-specific lysis of C1R-A2 targets (in words) [3]: displayed peptide-specific, cell-mediated lysis

Substance: Lys-Leu-Val-Val-Val-Gly-Ala-Gly-Gly-Val-Gly-Lys-Ser (KLVVVGAGGVGKS) [ras5-17(Gly12)]
Proliferation Response cpm(± SEM) ([4]; Table 5: peptide 10 μg/ml, RAS 10 coating +, BLCL +): 8,844 ± 753 cpm
Proliferation Response cpm(± SEM) ([4]; peptide 30 μg/ml, wells pre-coated with RAS 10, BLCL as APC): 8,130 ± 314 cpm
Proliferation Response cpm(± SEM) ([5]; Post-Immune culture (post-third vaccination), peptide 100 μg/ml): 640 ± 23 cpm
Proliferation Response SI (stimulation index) [5, 8]: 1.0
Proliferation Response cpm(± SEM) [5, 8]: 694 ± 19 cpm
Proliferation Response SI (stimulation index) [5, 9]: 1.1
Proliferation Response cpm(± SEM) [5, 9]: 725 ± 27 cpm
Proliferation Response SI (stimulation index) [5, 10]: 1.2
Proliferation Response cpm(± SEM) [5, 10]: 819 ± 142 cpm
Proliferation Response SI (stimulation index) ([5]; Post-Immune culture, peptide 100 μg/ml): 1.0
Proliferation Response SI (stimulation index) [5, 11]: 0.9
Proliferation Response cpm(± SEM) [5, 11]: 824 ± 255 cpm
Proliferation Response SI (stimulation index) [5, 12]: 1.1
Proliferation Response cpm(± SEM) [5, 12]: 768 ± 257 cpm
Proliferation Response SI (stimulation index) [5, 13]: 1.0
Proliferation Response cpm(± SEM) [5, 13]: 849 ± 14 cpm
Proliferation Response SI (stimulation index) [5, 14]: 0.9
Proliferation Response cpm(± SEM) [5, 14]: 790 ± 456 cpm
Proliferation, control culture (cpm±SEM) ([5]; T cells+BLCL+peptide 10 μg/ml, IVS cycle 15 (FIG. 2B)): 7,690±383 cpm
Proliferation, control culture (cpm±SEM) ([6]; T cells+EBV-B cells+peptide 3 μg/ml, IVS cycle 4 (FIG. 8B), without peptide 19,256±1926): 18,116±1474 cpm
Peptide-induced proliferation of patient 29 post-vaccination PBMC (in words) ([6]; post-vaccination, following IVS (FIG. 8A)): no proliferative response was detectable

Binding to HLA-A2 on T2 cells (in words) (human HLA-A2): failed to bind to HLA-A2
Substance: ras4-12(G12): proto-ras 9-mer sequence positions 4-12 with Gly at position 12 (YKLVVVGAG)
Generation of peptide-specific CTL line / lysis of peptide-pulsed targets (in words) [7]: No lysis was detectable
